Reference: patent publication US12383158B2, “Detection of high-risk unstable atherosclerotic plaque” (The Heart Research Institute Ltd, priority 2018, dated 2025)

Key:
[1] = biological target: T1, MPO activity in atherosclerotic plaque (Mus musculus, UniProt P11247); details: for CNR of unstable plaque in the right carotid artery, 30 min after contrast injection / CNR of unstable plaque in the right carotid artery, 60 min after contrast injection: mean±SD
T1 sequence (P11247 139-718): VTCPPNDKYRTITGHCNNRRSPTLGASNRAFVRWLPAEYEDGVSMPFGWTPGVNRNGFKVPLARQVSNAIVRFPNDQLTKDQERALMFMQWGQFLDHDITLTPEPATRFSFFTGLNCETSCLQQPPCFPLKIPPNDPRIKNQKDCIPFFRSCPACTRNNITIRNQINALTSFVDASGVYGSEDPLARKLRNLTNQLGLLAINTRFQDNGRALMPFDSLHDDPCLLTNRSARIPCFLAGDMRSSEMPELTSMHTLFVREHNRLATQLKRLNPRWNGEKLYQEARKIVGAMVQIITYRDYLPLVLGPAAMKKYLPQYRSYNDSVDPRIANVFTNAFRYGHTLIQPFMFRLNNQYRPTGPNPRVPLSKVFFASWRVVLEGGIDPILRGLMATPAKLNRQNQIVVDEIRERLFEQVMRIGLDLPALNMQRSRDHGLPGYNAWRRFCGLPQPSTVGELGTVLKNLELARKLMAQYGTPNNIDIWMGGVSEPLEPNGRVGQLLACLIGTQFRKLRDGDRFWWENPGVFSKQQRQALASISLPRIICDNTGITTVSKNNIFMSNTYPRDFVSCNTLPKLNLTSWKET
Source text: Scheme of action of bis-5HT-DTPA-Gd (MPO-Gd) and magnetic resonance imaging protocol. A, In the presence of H2O2, MPO oxidises the 5-hydroxytryptamine moiety of MPO-Gd to a phenoxyl radical, which then can give rise to either an MPO-Gd dimer or multimer (not shown) to amplify the signal. The phenoxyl radical-containing MPO-Gd may also covalently bind to proteins. […] B, Mice were imaged under isoflurane anaesthesia. Initial acquisition involved a localiser, time-of-flight and T1-weighted turbo spin echo (T1-TSE) imaging. Approximately 30 μmin after acquisition of baseline images, MPO-Gd (0.3 mmol/kg) was injected intravenously via the tail vein. Consecutive T1-TSE images were then acquired for 60 μmin following contrast injection. Segmental analysis of MPO activity was assessed by calculating the ΔCNR (CNRpost-contrast−CNRpre-contrast) for unstable and stable plaque, and non-diseased arterial segments.
At 7 weeks following TS surgery, isoflurane-anaesthetised mice were imaged in the prone position using a 9.4T Bruker Biospec 94/20 Avance III system (Bruker, Ettlingen, Germany) with a 50-mm quadrature radiofrequency coil and respiratory-gated image acquisition. Mice were imaged before and after intravenous administration of 0.3 μmmol/kg of the MPO sensor bis-5-hydroxytryptamide-DTPA Gd (MPO-Gd) or DTPA-Gd (Magnevist, Bayer, Leverkusen, Germany) via a tail vein catheter. Prior to contrast injection, a flow-compensated 2D-FLASH time-of-flight (TOF) angiography in a coronal slice orientation was performed to assess intra-vessel (luminal) volume and geometry using a flow compensated 2D-GRE sequence (FLASH) for time-of-flight (TOF) angiography in an axial slice orientation with the following major parameters: TR 34 μms, TE 3 μms, slice thickness 0.5 μmm, interslice distance 0.35 μmm, 40 slices, matrix size 128×128, FOV 20×20 μmm, in-plane resolution 156×156 μm. This was followed by a T1-weighted fast spin echo (TurboRARE, T1-TSE) acquired in the same orientation with the following parameters: TR 1500 μms, TE 8.5 μms, ETL 8, slice thickness 1 μmm, FOV 20×20 μmm, matrix size 192×192, in-plane resolution 104×104 μm. This T1-TSE protocol was then repeated in a scan series covering a period of one hour following contrast injection to assess contrast agent inflow and retention. OsiriX (Version 7.0, Pixmeo, Switzerland) was used for image analysis. In T1-TSE images, separate regions of interest were assigned to the vessel wall, skeletal muscle (reference) and background (air). The contrast-to-noise ratio (CNR) was calculated as follows: CNR=(SIvessel wall−SIskeletal muscle)/SDbackground The mean CNRs of three consecutive slices in plaque with unstable phenotype and corresponding segments of the left carotid artery (plaque-free), in addition to 1-2 consecutive slices in the brachiocephalic trunk (stable plaque, SP), were calculated. Segmental enhancement attributable to MPO was assessed by calculating the ΔCNR=CNRpost-contrast−CNRpre-contrast.

[2] = mouse, in vivo
Procedure: Nuclear microscopy experiments were performed at the Centre for Ion Beam Applications at the National University of Singapore, as described previously.6 Briefly, the samples were mounted onto a 3-axis stage within a scattering chamber maintained at <5×10−6 μmbar. A collimated proton beam (H+) at 2.1 MeV was generated using a 3.5 MV Singletron accelerator and kept incident onto the samples inclined at 45 degrees to the incident beam. The broad incident ion beam was focused down to a spot size of 1 μm and scanned across the region of interest. […]
PIXE data was collected using a Si(Li) detector placed at 20 μmm from the samples to the Si(Li) crystal face. RBS and STIM data were measured by a passivated implanted planar silicon (PIPS) detector. […]
Scanning transmission ion microscopy provides structural maps based on the energy lost by the protons as they pass through the relatively thin organic samples with thicknesses of 30 μm or less, enabling structural identification without fixing or staining. Trace elemental mapping was performed using particle-induced X-ray emission, which simultaneously provides multiple elements with high quantitative accuracy and sensitivity to a few parts per million in biological materials. […]

[3] = TS Apoe−/− mice, 0.3 mmol/kg i.v.

## CNC[C@H](O)[C@@H](O)[C@H](O)[C@H](O)CO.CNC[C@H](O)[C@@H](O)[C@H](O)[C@H](O)CO.O=C([O-])CN(CCN(CC(=O)[O-])CC(=O)O)CCN(CC(=O)[O-])CC(=O)O.[Gd+3] [DTPA-Gd]
[1]; [3]
  CNR of unstable plaque in the right carotid artery, 30 min after contrast injection: 19.2±7.2
  CNR of unstable plaque in the right carotid artery, 60 min after contrast injection: 13.4±3.6

## O=C([O-])CN(CCN(CC(=O)[O-])CC(=O)NCCc1c[nH]c2ccc(O)cc12)CCN(CC(=O)[O-])CC(=O)NCCc1c[nH]c2ccc(O)cc12.[Gd+3] [MPO-Gd, bis-5-hydroxytryptamide-DTPA Gd]
[1]; 60 min, compared with Apoe−/− mice
  enhancement of the right carotid artery in TS Mpo−/−Apoe−/− mice: attenuated enhancement
[1]; [3]
  enhancement of the brachiocephalic artery (stable plaque): did not result in significant sustained enhancement
  enhancement of the non-diseased vessel wall of the left carotid artery: no significant enhancement
  CNR of unstable plaque in the right carotid artery, 30 min after contrast injection: 23.7±6.8
  CNR of unstable plaque in the right carotid artery, 60 min after contrast injection: 25±6.4
[1]; mouse, in vivo
  period within which the enhancing material is washed out/eliminated from Segment I: < 2 weeks
[1]; unstable plaque (Segment I) vs stable plaque (brachiocephalic artery)
  plaque specificity of enhancement 1 week after TS surgery: seen only in unstable plaque
[2]
  Gd content of unstable plaque: significant accumulation of Gd
